Test results published in patent US6358885B1, “Substituted phenylheterocyclic herbicides” (Mississippi State University, priority 1992, dated 2002).

How the values were obtained:
Assay in all cases: Test B preemergence/postemergence greenhouse plant response rating 0 to 10
Conditions in all cases: 0 to 10 scale
sorghum = assay type: in vivo, Sorghum bicolor
In short: (§1)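 Planted seeds are treated preemergence with compound dissolved in a non-phytotoxic solvent, while postemergence applications go onto plants of two to eighteen cm. Plants stay in the greenhouse twelve to sixteen days and are then rated visually relative to controls.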

cheatgrass = assay type: in vivo, Bromus secalinus
In short: as §1

corn = assay type: in vivo, Zea mays
In short: as §1

blackgrass = assay type: in vivo, Alopecurus myosuroides
In short: as §1

cotton = assay type: in vivo, Gossypium hirsutum
In short: as §1

velvetleaf = assay type: in vivo, Abutilon theophrasti
In short: as §1

soybean = assay type: in vivo, Glycine max
In short: as §1

barley = assay type: in vivo, Hordeum vulgare
In short: as §1

wild buckwheat = assay type: in vivo, Polygonum convolvulus
In short: as §1

wild oat = assay type: in vivo, Avena fatua
In short: as §1

purple nutsedge = assay type: in vivo, Cyperus rotundus
In short: as §1

giant foxtail = assay type: in vivo, Setaria faberii
In short: as §1

lambsquarters = assay type: in vivo, Chenopodium album
In short: as §1

chickweed = assay type: in vivo, Stellaria media
In short: as §1

wheat = assay type: in vivo, Triticum aestivum
In short: as §1

barnyardgrass = assay type: in vivo, Echinochloa crus-galli
In short: as §1

cocklebur = assay type: in vivo, Xanthium pensylvanicum
In short: as §1

sugar beet = assay type: in vivo, Beta vulgaris
In short: as §1

crabgrass = assay type: in vivo, Digitaria spp.
In short: as §1

morningglory = assay type: in vivo, Ipomoea hederacea
In short: as §1

rice = assay type: in vivo, Oryza sativa
In short: as §1

bedstraw = assay type: in vivo, Galium aparine
In short: as §1

rape = assay type: in vivo, Brassica napus
In short: as §1

For `C=CCOc1cc(-c2nn3c(c2Br)CCCC3)c(F)cc1Cl` [Compound 37], the “Plant response rating, Sorghum” value (sorghum; POSTEMERGENCE, Rate 50 g/ha) was 5, the “Plant response rating, Sorghum” value (sorghum; PREEMERGENCE, Rate 50 g/ha) was 0 and the “Plant response rating, Sorghum” value (sorghum; Rate 200 g/ha, POSTEMERGENCE) was 6. The “Plant response rating, Sorghum” value (sorghum; Rate 200 g/ha, PREEMERGENCE) was 1, the “Plant response rating, Cheatgrass” value (cheatgrass; POSTEMERGENCE, Rate 50 g/ha) was 4 and the “Plant response rating, Cheatgrass” value (cheatgrass; POSTEMERGENCE, Rate 200 g/ha) was 7. The “Plant response rating, Cheatgrass” value (cheatgrass; PREEMERGENCE, Rate 50 g/ha) was 5, the “Plant response rating, Cheatgrass” value (cheatgrass; Rate 200 g/ha, PREEMERGENCE) was 6 and the “Plant response rating, Corn” value (corn; POSTEMERGENCE, Rate 50 g/ha) was 6. For the same compound, the “Plant response rating, Corn” value (corn; POSTEMERGENCE, Rate 200 g/ha) was 8, the “Plant response rating, Corn” value (corn; PREEMERGENCE, Rate 50 g/ha) was 0 and the “Plant response rating, Corn” value (corn; Rate 200 g/ha, PREEMERGENCE) was 3. The “Plant response rating, Blackgrass” value (blackgrass; POSTEMERGENCE, Rate 50 g/ha) was 4, the “Plant response rating, Blackgrass” value (blackgrass; POSTEMERGENCE, Rate 200 g/ha) was 7 and the “Plant response rating, Blackgrass” value (blackgrass; PREEMERGENCE, Rate 50 g/ha) was 0. The “Plant response rating, Blackgrass” value (blackgrass; Rate 200 g/ha, PREEMERGENCE) was 6, the “Plant response rating, Cotton” value (cotton; POSTEMERGENCE, Rate 50 g/ha) was 10 and the “Plant response rating, Cotton” value (cotton; POSTEMERGENCE, Rate 200 g/ha) was 10. The “Plant response rating, Cotton” value (cotton; PREEMERGENCE, Rate 50 g/ha) was 0, the “Plant response rating, Cotton” value (cotton; Rate 200 g/ha, PREEMERGENCE) was 7 and the “Plant response rating, Velvetleaf” value (velvetleaf; POSTEMERGENCE, Rate 50 g/ha) was 10. For the same compound, the “Plant response rating, Velvetleaf” value (velvetleaf; PREEMERGENCE, Rate 50 g/ha) was 1, the “Plant response rating, Velvetleaf” value (velvetleaf; Rate 200 g/ha, POSTEMERGENCE) was 10 and the “Plant response rating, Velvetleaf” value (velvetleaf; Rate 200 g/ha, PREEMERGENCE) was 9. The “Plant response rating, Soybean” value (soybean; POSTEMERGENCE, Rate 50 g/ha) was 5, the “Plant response rating, Soybean” value (soybean; PREEMERGENCE, Rate 50 g/ha) was 0 and the “Plant response rating, Soybean” value (soybean; Rate 200 g/ha, POSTEMERGENCE) was 6. For the same compound, the “Plant response rating, Soybean” value (soybean; Rate 200 g/ha, PREEMERGENCE) was 4, the “Plant response rating, Barley” value (barley; POSTEMERGENCE, Rate 50 g/ha) was 4 and the “Plant response rating, Barley” value (barley; POSTEMERGENCE, Rate 200 g/ha) was 6. The “Plant response rating, Barley” value (barley; PREEMERGENCE, Rate 50 g/ha) was 0, the “Plant response rating, Barley” value (barley; Rate 200 g/ha, PREEMERGENCE) was 0 and the “Plant response rating, Wild buckwheat” value (wild buckwheat; POSTEMERGENCE, Rate 50 g/ha) was 9. The “Plant response rating, Wild buckwheat” value (wild buckwheat; PREEMERGENCE, Rate 50 g/ha) was 9, the “Plant response rating, Wild buckwheat” value (wild buckwheat; Rate 200 g/ha, POSTEMERGENCE) was 10 and the “Plant response rating, Wild buckwheat” value (wild buckwheat; Rate 200 g/ha, PREEMERGENCE) was 10. The “Plant response rating, Wild oat” value (wild oat; POSTEMERGENCE, Rate 50 g/ha) was 4, the “Plant response rating, Wild oat” value (wild oat; PREEMERGENCE, Rate 50 g/ha) was 2 and the “Plant response rating, Wild oat” value (wild oat; Rate 200 g/ha, POSTEMERGENCE) was 6. For the same compound, the “Plant response rating, Nutsedge” value (purple nutsedge; POSTEMERGENCE, Rate 50 g/ha) was 2, the “Plant response rating, Nutsedge” value (purple nutsedge; PREEMERGENCE, Rate 50 g/ha) was 0 and the “Plant response rating, Nutsedge” value (purple nutsedge; Rate 200 g/ha, POSTEMERGENCE) was 4. The “Plant response rating, Nutsedge” value (purple nutsedge; Rate 200 g/ha, PREEMERGENCE) was 0, the “Plant response rating, Giant foxtail” value (giant foxtail; POSTEMERGENCE, Rate 50 g/ha) was 5 and the “Plant response rating, Giant foxtail” value (giant foxtail; PREEMERGENCE, Rate 50 g/ha) was 2. The “Plant response rating, Giant foxtail” value (giant foxtail; Rate 200 g/ha, POSTEMERGENCE) was 6, the “Plant response rating, Giant foxtail” value (giant foxtail; Rate 200 g/ha, PREEMERGENCE) was 5 and the “Plant response rating, Lambsquarter” value (lambsquarters; POSTEMERGENCE, Rate 50 g/ha) was 9. For the same compound, the “Plant response rating, Lambsquarter” value (lambsquarters; PREEMERGENCE, Rate 50 g/ha) was 10, the “Plant response rating, Lambsquarter” value (lambsquarters; Rate 200 g/ha, POSTEMERGENCE) was 10 and the “Plant response rating, Lambsquarter” value (lambsquarters; Rate 200 g/ha, PREEMERGENCE) was 10. The “Plant response rating, Chickweed” value (chickweed; POSTEMERGENCE, Rate 50 g/ha) was 5, the “Plant response rating, Chickweed” value (chickweed; POSTEMERGENCE, Rate 200 g/ha) was 10 and the “Plant response rating, Chickweed” value (chickweed; Rate 200 g/ha, PREEMERGENCE) was 9. For the same compound, the “Plant response rating, Wheat” value (wheat; POSTEMERGENCE, Rate 50 g/ha) was 4, the “Plant response rating, Wheat” value (wheat; PREEMERGENCE, Rate 50 g/ha) was 0 and the “Plant response rating, Wheat” value (wheat; Rate 200 g/ha, POSTEMERGENCE) was 5. The “Plant response rating, Wheat” value (wheat; Rate 200 g/ha, PREEMERGENCE) was 3, the “Plant response rating, Barnyardgrass” value (barnyardgrass; POSTEMERGENCE, Rate 50 g/ha) was 5 and the “Plant response rating, Barnyardgrass” value (barnyardgrass; POSTEMERGENCE, Rate 200 g/ha) was 7. For the same compound, the “Plant response rating, Barnyardgrass” value (barnyardgrass; PREEMERGENCE, Rate 50 g/ha) was 0, the “Plant response rating, Barnyardgrass” value (barnyardgrass; Rate 200 g/ha, PREEMERGENCE) was 4 and the “Plant response rating, Cocklebur” value (cocklebur; POSTEMERGENCE, Rate 50 g/ha) was 7. For the same compound, the “Plant response rating, Cocklebur” value (cocklebur; POSTEMERGENCE, Rate 200 g/ha) was 10, the “Plant response rating, Cocklebur” value (cocklebur; PREEMERGENCE, Rate 50 g/ha) was 0 and the “Plant response rating, Cocklebur” value (cocklebur; Rate 200 g/ha, PREEMERGENCE) was 0. For the same compound, the “Plant response rating, Sugar beet” value (sugar beet; POSTEMERGENCE, Rate 50 g/ha) was 10, the “Plant response rating, Sugar beet” value (sugar beet; PREEMERGENCE, Rate 50 g/ha) was 9 and the “Plant response rating, Sugar beet” value (sugar beet; Rate 200 g/ha, POSTEMERGENCE) was 10. For the same compound, the “Plant response rating, Sugar beet” value (sugar beet; Rate 200 g/ha, PREEMERGENCE) was 9, the “Plant response rating, Crabgrass” value (crabgrass; POSTEMERGENCE, Rate 50 g/ha) was 4 and the “Plant response rating, Crabgrass” value (crabgrass; POSTEMERGENCE, Rate 200 g/ha) was 5. The “Plant response rating, Crabgrass” value (crabgrass; PREEMERGENCE, Rate 50 g/ha) was 0, the “Plant response rating, Crabgrass” value (crabgrass; Rate 200 g/ha, PREEMERGENCE) was 7 and the “Plant response rating, Morningglory” value (morningglory; POSTEMERGENCE, Rate 50 g/ha) was 7. For the same compound, the “Plant response rating, Morningglory” value (morningglory; PREEMERGENCE, Rate 50 g/ha) was 0, the “Plant response rating, Morningglory” value (morningglory; Rate 200 g/ha, POSTEMERGENCE) was 8 and the “Plant response rating, Morningglory” value (morningglory; Rate 200 g/ha, PREEMERGENCE) was 1. For the same compound, the “Plant response rating, Rice” value (rice; POSTEMERGENCE, Rate 50 g/ha) was 5, the “Plant response rating, Rice” value (rice; PREEMERGENCE, Rate 50 g/ha) was 0 and the “Plant response rating, Rice” value (rice; Rate 200 g/ha, POSTEMERGENCE) was 6. For the same compound, the “Plant response rating, Rice” value (rice; Rate 200 g/ha, PREEMERGENCE) was 0, the “Plant response rating, Bedstraw” value (bedstraw; POSTEMERGENCE, Rate 50 g/ha) was 7 and the “Plant response rating, Bedstraw” value (bedstraw; POSTEMERGENCE, Rate 200 g/ha) was 10. For the same compound, the “Plant response rating, Bedstraw” value (bedstraw; Rate 200 g/ha, PREEMERGENCE) was 8, the “Plant response rating, Rape” value (rape; POSTEMERGENCE, Rate 50 g/ha) was 9 and the “Plant response rating, Rape” value (rape; Rate 200 g/ha, POSTEMERGENCE) was 10. For the same compound, the “Plant response rating, Rape” value (rape; Rate 200 g/ha, PREEMERGENCE) was 6.
